The subject of data set [1] is pool of microorganisms. Briefly: Rapid decontamination and long term preservation challenge test in UCAR Latex 626 (pH 8.7). The conditions noted are these: for active concentration, used alone, achieving 4 log10 reduction in bacterial concentration: UCAR Latex 626, pH 8.7, 1 h after initial inoculum; for concentration, used alone, achieving decontamination: 24 h after second inoculation at seven days. Format: cell-based. The method, then:
(§1) The antimicrobial profiles of DBNPA, BNPD, and a combination of DBNPA-BNPD (3:1 w/w) are tested in a commercial water-based latex (UCAR Latex 626 available from The Dow Chemical Company), and a generic mineral slurry sample. Commercial latexes vary in pH values from slightly acidic to basic. For the purpose of this study, a latex with a basic pH (8.7) is selected, as it is known that both BNPD and DBNPA have limited chemical stability at alkaline pH. Mineral slurries vary in pH, but most often they are alkaline. For the purpose of this study, a titanium dioxide slurry with pH of 8.35 was selected.
(§2) Both the latex and the mineral slurry are free of contamination prior to testing. At time zero, the test matrices are inoculated with a pool of microorganisms (listed below) to a final concentration of 5×10^6 CFU/ml. Aliquots of the contaminated samples are weighed into a series of sterile containers followed by addition of the appropriate volume of biocide required to achieve the desired concentration. A control sample, lacking biocide, is included in each evaluation. Following biocide addition, samples are thoroughly mixed and aliquots are removed and streaked to tryptic soy agar plates, at various time points, for the enumeration of surviving microorganisms. All agar plates are incubated at 30° C. for 72 hours prior to assessment of viable bacteria. In all the ensuing results, a minimum of 4 log10 reduction in microorganism concentration, as compared to the control sample, is considered significant efficacy.
(§3) Microorganisms: Twenty-four hour tryptic soy broth cultures are combined in equal parts for formulation inoculation at a final concentration of 5×10^6 CFU/ml. Organisms utilized: Pseudomonas aeruginosa (ATCC#15442), Pseudomonas aeruginosa (ATCC#10145), Staphylococcus aureus (ATCC#6538), Burkholderia cepacia (ATCC#25416), Pseudomonas fluorescens B (environmental isolate), Pseudomonas oleovorans (environmental isolate), Enterococcus sulfureus (environmental isolate). To assess the rapid decontamination efficacy of the biocides, aliquots are removed at 60 minutes following the initial inoculation, and streaked on tryptic soy agar plates for the enumeration of surviving microorganisms. The samples are stored at ambient conditions for three or seven days, respectively, at which point a second inoculation is administered, to test the long term preservation efficacy of the biocides. Aliquots are removed at 4 h and/or 24 h or 48 h following the second inoculation, and streaked on tryptic soy agar plates, for the enumeration of surviving microorganisms.
(§4) Synergy: The synergy indexes reported here are measured and calculated using Formula 1. In this approach, a synergy index (SI) of 1 indicates additivity. If the synergy index is less than 1, synergy has occurred, while a synergy index greater than 1 indicates antagonism.
(§5) Synergy Index=CA/Ca+CB/Cb (1)
Ca=concentration of antimicrobial A, alone, producing a predetermined end-point
Cb=concentration of antimicrobial B, alone, producing a predetermined end-point
CA and CB=the concentrations of antimicrobials A and B, respectively, together in a mixture, that produce a predetermined end-point

The subject of data set [2] is pool of microorganisms. Briefly: Rapid decontamination and long term preservation challenge test in titanium dioxide mineral slurry (pH 8.35). Format: cell-based. The following applies: for concentration, used alone, obtaining 4 log10 reduction in microorganisms: 48 hours after second inoculation at seven days; for effective concentration, used alone (4 log10 reduction): pH 8.35, 30 min after initial inoculation. The method, then: as §1, §2
as §3, with “To assess the rapid decontamination efficacy of the biocides, aliquots are removed at 60 minutes following the initial inoculation, and streaked on tryptic soy agar plates for the enumeration of surviving microorganisms.” left out
as §4, §5
Ca=concentration of antimicrobial A, alone, producing a predetermined end-point […]

The conditions of data set [3]: going from pH 6 to pH 8.9; cited from earlier work.

Molecules are shown by their SMILES. Some results are limits rather than exact numbers.

Turning to `O=[N+]([O-])C(Br)(CO)CO` [BNPD, 2-bromo-2-nitro-1,3-propanediol], the “active concentration, used alone, achieving 4 log10 reduction in bacterial concentration” value in the data set with pool of microorganisms [1] was above 600 ppm. Further, the “concentration, used alone, achieving decontamination” value in the data set on pool of microorganisms [1] (UCAR Latex 626) is 95.7 ppm. The “effective active concentration (4 log10 reduction)” value in the data set on pool of microorganisms [1] (UCAR Latex 626, 24 h after second inoculation at three days) is on record as 95.7 ppm. For the same compound, in the data set on pool of microorganisms [2], the “concentration, used alone, obtaining 4 log10 reduction in microorganisms” value came to 35.1 ppm and the “effective concentration, used alone (4 log10 reduction)” value was above 600 ppm.

In the case of `N#CC(Br)(Br)C(N)=O` [DBNPA, 2,2-dibromo-3-nitrilopropionamide], the “factor of increase of rate of disappearance” value in data set [3] is given as “about 450”. In addition, the “active concentration, used alone, achieving 4 log10 reduction in bacterial concentration” value with pool of microorganisms [1] stood at 140 ppm. In addition, the “concentration, used alone, achieving decontamination” value with pool of microorganisms [1] (UCAR Latex 626) is recorded as “did not achieve decontamination”. For the same compound, in the data set on pool of microorganisms [2], the “concentration, used alone, obtaining 4 log10 reduction in microorganisms” value is reported as 400 ppm and the “effective concentration, used alone (4 log10 reduction)” value came to 23.4 ppm.

(Values after patent US20100016441A1, “BIOCIDAL COMPOSITION AND METHOD” (priority 2008, published 2010).)
